Source: US20110217265A1, “Screening for Inhibitors of HCV Amphipathic Helix (AH) Function” (priority 2008, published 2011)
“Also recorded” adds a separate entry of the source.

Tests used:
[1] = tested on: subgenomic genotype 1b replicon RNA (Bart79ILuc); assay: Transient genotype 1b subgenomic replicon (Bart79I-luc) luciferase replication assay in Huh7.5 cells; assay type: cell-based, Hepatitis C Virus genotype 1b; settings: luciferase at 72 hr of treatment
From the text: Plasmids. Bart79I, a high-efficiency subgenomic replicon of HCV (28), harbors the neomycin resistance gene (neo) and the HCV nonstructural proteins. The Bart-Luciferase plasmid, Bart79I-luc, was cloned from the Bart791 parent (29) and the pGL3-Basic parent (Promega). In brief, a NotI site was introduced after the 15th amino acid of Core in Bart791 using PCR mutagenesis. The plasmid pcDNA3.1-NS4B, which encodes the Con1 NS4B sequence and was used to study the protein stability of the wild type and mutant NS4Bs, was described previously. […]
Transient Replication Assays. […] Firefly luciferase activities were measured at 8, 48, 96, and 144 hr post electroporation by using a firefly luciferase kit from Promega (Madison, Wis.).
Antiviral Assays of Compounds. […] Plates were then scanned and fluorescence was detected by using a FLEXstation II 384 (Molecular Devices). […] Viral RNA replication was determined using Renilla (FL-J6/JFH-5′C19Rluc2AUbi) or firefly (Bart791-luc) luciferase assays, according to the manufacturer's (Promega) directions. The same samples subjected to the viability assay described below were analyzed in this assay. […] Luminescence was measured over 10 seconds with a 2-second delay using a Berthold LB 96 V luminometer. […]

[2] = tested on: genotype 2b luciferase reporter-linked HCV replicons; assay: HCV replication assay in combination with NS3 protease inhibitor SCH503034; assay type: cell-based, Hepatitis C Virus; settings: combination with various concentrations of SCH503034, FIG. 11
Protocol: FIG. 11. 4BAH2 inhibitors can increase the anti-HCV activity of agents targeting other elements of HCV. The compound of FIG. 10 was tested in standard HCV replication assays as in FIG. 10 but in the presence of various concentrations of an NS3 protease inhibitor (SCH503034, “SCH”). Note that in these assays a genotype 2b luciferase reporter-linked HCV replicons was used, indicating the broad spectrum potential of the C4 compound against multiple HCV genotypes.
To determine the optimum combination of an HCV AH function inhibiting agent, such as 5-(N-Methyl-N-isobutyl)amiloride, with other anti-HCV agents, HCV replication assays and/or animal studies can be performed in the presence of various combinations of the various anti-HCV agents. Increased inhibition of replication in the presence of an additional agent (above that observed with monotherapy) is evidence for the potential benefit of the combination therapy. For example, HCV replication assays employing a luciferase reporter-linked HCV genome in the presence of various combinations of 3-amino-N-carbamimidoyl-6-chloro-5-(isobutyl(methyl)amino)pyrazine-2-carboxamidepyrazine-2-carboxamide and an NS3 protease inhibitor (SCH503034) are described elsewhere in this application and some results are shown in FIG. 11.
Effect of hits on HCV replication. […]

4BAH2 peptide = biological target: T1, 4BAH2 peptide (Hepatitis C virus genotype 1b, UniProt Q9WMX2); assay: AFM of 4BAH2 peptide oligomerization on SiOx substrate; assay type: biochemical
T1 construct: purchased Anaspec Corporation (San Jose, Calif., USA); host or cells: chemical synthesis
T1 sequence (Q9WMX2 1754-1776): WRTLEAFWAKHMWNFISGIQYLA
Protocol: Atomic Force Microscopy. The AFM experiments were carried out on a XE-Bio (Park Systems Suwon, Korea) in contact and non-contact modes. Rectangular-shaped silicon cantilevers were used (SICON for contact mode and ACT for non-contact mode, AppNano, Santa Clara, Calif.). […] All measurements were performed in a PBS buffer. Images in fluid were obtained both in contact mode with an imaging force of less than 200 pN and in noncontact mode. However, images presented in this manuscript were only obtained in non-contact mode in fluid. The scan line speed was optimized between 0.3 Hz to 1 Hz with a pixel number of 256×256, depending on the scan size. Images were recorded in height, amplitude, phase, and error modes. All measurements were done on the height images. All images shown were subjected to a first order plane-fitting procedure to compensate for sample tilt. The cross-sectional analysis was carried out on images subjected only to a first order plane-fitting procedure. Topographical and grain analyses were performed using the software XEI 1.7.1 supplied by Park Systems (Suwon, Korea).

**Q.** Which results are given for CC(C)CN(C)c1nc(N)c(C(=O)NC(=N)N)nc1Cl [C4, 3-amino-N-carbamimidoyl-6-chloro-5-(isobutyl(methyl)amino)pyrazine-2-carboxamide]?
**A.** Inhibition of HCV genotype 1b genome replication [1]: inhibits HCV replication; also recorded: dose-dependent inhibition; Effect on anti-HCV activity of NS3 protease inhibitor SCH503034 [2]: increases the anti-HCV activity; Effect on 4BAH2 peptide aggregation / self-oligomerization (AFM) (4BAH2 peptide): inhibit peptide aggregation
